Results published in patent US11066447B2, “Aureobasidium derivatives and methods of synthesis” (AureoGen Biosciences, Inc., priority 2016, dated 2021).
In brackets after ≈: the same amount, converted by molar mass. Where two headings read alike, the source gives them in different places. Numbered stars: 1 amine (or outer) side, 2 acyl side, 3 side chain; on linkers, the order of the positions; unused ones are H or OH. Square brackets hold non-standard residues; d marks the D form. Peptide text beside a SMILES is read from it. ξ: configuration not given here. X13 = CN([C@@H](Cc1cccc(-c2ccc(N3CCN(C(=O)OC(C)(C)C)CC3)nc2)c1)C(=O)[*:2])[*:1]; X24 = CN([C@@H](Cc1cccc(-c2ccnc(N3CCOCC3)c2)c1)C(=O)[*:2])[*:1]; X16 = CC(C)c1cc(-c2cccc(C[C@@H](C(=O)[*:2])N(C)[*:1])c2)ccn1; X14 = CN([C@@H](Cc1cccc(-c2ccc3ncccc3c2)c1)C(=O)[*:2])[*:1]; X17 = CN([C@@H](Cc1cccc(-c2cnc3ccccc3c2)c1)C(=O)[*:2])[*:1]; X18 = CN([C@@H](Cc1cccc(-c2ccc3ccncc3c2)c1)C(=O)[*:2])[*:1]; Hmp(2R,3S) = CC[C@H](C)[C@@H](O)C(=O)O; NMeVal(β-OH) = CN[C@H](C(=O)O)C(C)(C)O; X6 = CCC(C)[C@@H](O[*:1])C(=O)[*:2]; Ile(3ξ) = CCC(C)[C@H](N)C(=O)O; NMeV = CN[C@H](C(=O)O)C(C)C

How the values were obtained:
[1] = system: A. fumigatus MMX 6782 ATCC 13073; experiment: MIC/MEC assay (CLSI microdilution); assay type: cell-based; details: Aspergillus fumigatus, ATCC13073, 48 h; for minimal effective concentration: RPMI plus 0.002% Tween-80, read-out: MEC; for MIC: RPMI plus 0.002% Tween-80, read-out: MIC
In short: (§1)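 Test agents were assayed by CLSI broth microdilution in Tween-80-supplemented (0.002%) RPMI-1640 against spore inocula of approximately 0.2-2.5×10^4 CFU/mL. Strain MMX 5280 was run both with and without Tween-80.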

[2] = system: A. fumigatus MMX 5944; experiment: MIC/MEC assay (CLSI microdilution); assay type: cell-based; details: Aspergillus fumigatus, MMX5944, 48 h; for minimal effective concentration: RPMI plus 0.002% Tween-80; for MIC: RPMI plus 0.002% Tween-80, read-out: MIC
In short: as §1

[3] = system: A. flavus MMX 5948; experiment: MIC/MEC assay (CLSI microdilution); assay type: cell-based; details: Aspergillus flavus, MMX5948, 48 h; for minimal effective concentration: RPMI plus 0.002% Tween-80; for MIC: RPMI plus 0.002% Tween-80, read-out: MIC
In short: as §1

[4] = system: A. niger MMX 0624 ATCC 16888; experiment: MIC/MEC assay (CLSI microdilution); assay type: cell-based; details: for minimal effective concentration: RPMI plus 0.002% Tween-80, read-out: MEC
In short: as §1

[5] = system: A. fumigatus MMX 6781 ATCC MYA-4609; experiment: MIC/MEC assay (CLSI microdilution); assay type: cell-based; details: Aspergillus fumigatus; for MIC: 48 h, RPMI plus 0.002% Tween-80, read-out: MIC; for minimal effective concentration: RPMI plus 0.002% Tween-80, 48 hr
In short: as §1

[6] = system: A. fumigatus from Aureogen; experiment: MIC/MEC assay (CLSI microdilution); assay type: cell-based; details: Aspergillus fumigatus, 48 h; for minimal effective concentration: RPMI plus 0.002% Tween-80; for MIC: RPMI plus 0.002% Tween-80, read-out: MIC
In short: as §1

[7] = system: A. fumigatus MMX 5280 ATCC MYA-3626; experiment: MIC/MEC assay (CLSI microdilution); assay type: cell-based, Aspergillus fumigatus; details: Aspergillus fumigatus, 48 h
In short: as §1

[8] = system: C. parapsilosis MMX 2323 ATCC 22019; experiment: MIC assay (CLSI microdilution); assay type: cell-based, Candida parapsilosis; details: read-out: MIC
In short: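 Broth microdilution MIC testing of Candida parapsilosis ATCC 22019 followed CLSI methods in RPMI-1640, with or without 0.002% Tween-80. Yeast grown 48 hours at 35° C on Sabouraud dextrose agar was suspended to a 0.5 McFarland standard and diluted 1:100 to roughly 0.5-2.5×10^3 CFU/mL. The MIC was the lowest concentration preventing visible growth.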

[9] = system: C. albicans MMX 2000 ATCC 10231; experiment: MIC assay (CLSI microdilution); assay type: cell-based; details: Candida albicans, ATCC10231, RPMI plus 0.002% Tween-80; read-out: MIC
[10] = system: C. neoformans MMX 0634 ATCC 90112; experiment: MIC assay (CLSI microdilution); assay type: cell-based; details: Cryptococcus neoformans, ATCC90112, RPMI plus 0.002% Tween-80; read-out: MIC
[11] = RPMI plus 0.002% Tween-80, 48 hr
[12] = RPMI plus 0.002% Tween-80, read-out: MEC
[13] = RPMI plus 0.002% Tween-80, read-out: MIC
[14] = Without Tween-80, read-out: MEC
[15] = Without Tween-80, read-out: MIC
[16] = ATCC22019, RPMI plus 0.002% Tween-80
[17] = Aspergillus niger, ATCC16888, 48 h
[18] = Aspergillus niger, ATCC16888, 48 h, RPMI plus 0.002% Tween-80, read-out: MIC

Structure (SMILES) | minimal effective concentration [1] [µg/mL] | MIC [1] [µg/mL] | minimal effective concentration [2] [µg/mL] | MIC [2] [µg/mL] | minimal effective concentration [3] [µg/mL] | MIC [3] [µg/mL] | MIC [5] [µg/mL] | minimal effective concentration [5] [µg/mL] | minimal effective concentration [6] [µg/mL] | MIC [6] [µg/mL] | minimal effective concentration [7, 12] [µg/mL] | MIC [7, 13] [µg/mL] | minimal effective concentration [7, 14] [µg/mL] | MIC [7, 15] [µg/mL] | MIC [8, 16] [µg/mL] | MIC ([8]; ATCC22019, Without Tween-80) [µg/mL] | MIC [9] [µg/mL] | MIC [10] [µg/mL] | minimal effective concentration [4, 17] [µg/mL] | MIC [4, 18] [µg/mL] | other results
CC[C@H](C)[C@@H]1NC(=O)[C@@H]2CCCN2C(=O)[C@H](Cc2cccc(-c3ccc(N4CCN(C(=O)OC(C)(C)C)CC4)nc3)c2)N(C)C(=O)[C@H](Cc2ccccc2)NC(=O)[C@H](C(C)C)N(C)C(=O)[C@@H]([C@@H](C)CC)OC(=O)[C@H](C(C)(C)O)N(C)C(=O)[C@H](CC(C)C)NC(=O)[C@H](C(C)C)N(C)C1=O [Compound 26] (cyclo(F[X13]PI[NMeV]L[NMeVal(β-OH)][Hmp(2R,3S)][NMeV])) | > 64 | > 64 | > 64 | > 64 | > 64 | > 64 | > 64 | > 64 | > 64 | > 64 | > 64 | > 64 | > 64 | > 64 | 1 | 2 (≈ 1.47 µM) | 0.12 | 0.25 |  |  | MEC [4, 11]: 2/2 μg/mL; MIC [4, 11]: 2/2 μg/mL
CCC(C)[C@@H]1NC(=O)[C@@H]2CCCN2C(=O)[C@H](Cc2cccc(-c3ccc4ncccc4c3)c2)N(C)C(=O)[C@H](Cc2ccccc2)NC(=O)[C@H](C(C)C)N(C)C(=O)[C@@H](C(C)CC)OC(=O)[C@H](C(C)(C)O)N(C)C(=O)[C@H](CC(C)C)NC(=O)[C@H](C(C)C)N(C)C1=O (stereo partly drawn) [Compound 18] (cyclo(F[X14]P[Ile(3ξ)][NMeV]L[NMeVal(β-OH)][X6][NMeV])) |  | > 64 | > 64 | > 64 | 0.25 | 0.5 | > 64 | > 64 | > 64 | > 64 | > 64 | > 64 | > 64 | > 64 | 0.12 | 1 (≈ 0.814 µM) | 0.03 | 0.25 | 0.06 | 0.25 | 
CC[C@H](C)[C@@H]1NC(=O)[C@@H]2CCCN2C(=O)[C@H](Cc2cccc(-c3ccnc(N4CCOCC4)c3)c2)N(C)C(=O)[C@H](Cc2ccccc2)NC(=O)[C@H](C(C)C)N(C)C(=O)[C@@H]([C@@H](C)CC)OC(=O)[C@H](C(C)(C)O)N(C)C(=O)[C@H](CC(C)C)NC(=O)[C@H](C(C)C)N(C)C1=O [Compound 21] (cyclo(F[X24]PI[NMeV]L[NMeVal(β-OH)][Hmp(2R,3S)][NMeV])) | > 64 | > 64 | > 64 | > 64 | 0.25 | > 64 | > 64 | > 64 | > 64 | > 64 | > 64 | > 64 | > 64 | > 64 | 0.06 | 1 (≈ 0.791 µM) | 0.015 | 0.25 | 0.06 | 0.25 | 
CC[C@H](C)[C@@H]1NC(=O)[C@@H]2CCCN2C(=O)[C@H](Cc2cccc(-c3cnc4ccccc4c3)c2)N(C)C(=O)[C@H](Cc2ccccc2)NC(=O)[C@H](C(C)C)N(C)C(=O)[C@@H]([C@@H](C)CC)OC(=O)[C@H](C(C)(C)O)N(C)C(=O)[C@H](CC(C)C)NC(=O)[C@H](C(C)C)N(C)C1=O [Compound 27] (cyclo(F[X17]PI[NMeV]L[NMeVal(β-OH)][Hmp(2R,3S)][NMeV])) | > 64 | > 64 | > 64 | > 64 | 0.12 | 0.5 | > 64 | > 64 | > 64 | > 64 | > 64 | > 64 | > 64 | > 64 | 0.12 | 1 (≈ 0.814 µM) | 0.015 | 0.12 | 0.06 | 0.06 | 
CC[C@H](C)[C@@H]1NC(=O)[C@@H]2CCCN2C(=O)[C@H](Cc2cccc(-c3ccnc(C(C)C)c3)c2)N(C)C(=O)[C@H](Cc2ccccc2)NC(=O)[C@H](C(C)C)N(C)C(=O)[C@@H]([C@@H](C)CC)OC(=O)[C@H](C(C)(C)O)N(C)C(=O)[C@H](CC(C)C)NC(=O)[C@H](C(C)C)N(C)C1=O [Compound 16] (cyclo(F[X16]PI[NMeV]L[NMeVal(β-OH)][Hmp(2R,3S)][NMeV])) | 1 | > 64 | 2 | > 64 | 0.5 | 1 | > 64 | 2 | 2 | > 64 | 2 | > 64 | 2 | > 64 | 0.12 | 1 (≈ 0.819 µM) | 0.03 | 0.12 | 0.5 | 0.5 | 
CC[C@H](C)[C@@H]1NC(=O)[C@@H]2CCCN2C(=O)[C@H](Cc2cccc(-c3ccc4ccncc4c3)c2)N(C)C(=O)[C@H](Cc2ccccc2)NC(=O)[C@H](C(C)C)N(C)C(=O)[C@@H]([C@@H](C)CC)OC(=O)[C@H](C(C)(C)O)N(C)C(=O)[C@H](CC(C)C)NC(=O)[C@H](C(C)C)N(C)C1=O [Compound 17] (cyclo(F[X18]PI[NMeV]L[NMeVal(β-OH)][Hmp(2R,3S)][NMeV])) | > 64 | > 64 | > 64 | > 64 | 0.12 | 0.5 | > 64 | > 64 | > 64 | > 64 | > 64 | > 64 | > 64 | > 64 | 0.06 | 1 (≈ 0.814 µM) | 0.015 | 0.25 | 0.06 | 0.12 | 
